Assay results: patent publication US11415579B2, “Assay for measuring a rate of reaction between a target and a ligand candidate” (Imperial College Innovations Ltd., priority 2016, dated 2022)

Columns and labels:
Cdk2(C177A, F80C) = biological target: T1, Cdk2(C177A, F80C) (Homo sapiens, UniProt P24941, C177A/F80C); test: Kinetic thiol consumption assay with Cdk2 mutant F80C, incl. kobs versus concentration (Kd, k2); assay type: binding; set-up: key to Rate enhancement, Cdk2 F80C: Cdk2 rate constant divided by model-thiol rate constant; settings: additional mutation C177A; for Rate constant with Cdk2 F80C: Protein: Cdk2, cysteine position F80C, in h^-1
T1 construct: poly-histidine; made in house; host or cells: E. coli
Summary of the method: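 His-tagged Cdk2(C177A/F80C) from E. coli or model thiol, 5 μM in degassed phosphate buffer pH 8 with TCEP beads, reacted with acrylamide ligands; fluorescence (ex/em 380/470 nm) normalized to DMSO control and fitted to first-order decay for kobs. Kd and k2 obtained from hyperbolic fit of kobs versus ligand concentration.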

Cdk2(T182C) (C177A) = biological target: T2, Cdk2(T182C) (C177A) (Homo sapiens, UniProt P24941, C177A/T182C); test: Kinetic thiol consumption assay with Cdk2 mutant T182C; assay type: binding; set-up: key to Rate enhancement, Cdk2 T182C: rate constant with Cdk2 ÷ rate constant with model thiol (fold); settings: additional mutation C177A; for Rate constant with Cdk2 T182C: Protein: Cdk2, cysteine position T182C, in h^-1
T2 construct: poly-histidine; made in house; host or cells: E. coli
Summary of the method: (§1)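 5 μM thiol, degassed phosphate pH 8, 2% v/v immobilized TCEP beads; 1 h RT; fluorescence ex 380/em 470 nm; normalized vs DMSO/thiol-only; first-order exponential decay fit → rate constant; Cdk2 k / model-thiol k = rate enhancement per acrylamide.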

[1] = biological target: T3, human cyclin-dependent kinase 2 (Cdk2) (Homo sapiens, UniProt P24941); test: Kinetic thiol consumption assay with wild type Cdk2 (C177); assay type: binding; set-up: key to Rate enhancement, Cdk2 WT: k(Cdk2) divided by k(model thiol); Rate constant with Cdk2 (k(Cdk2)): unit not given here; settings: for Rate constant with Cdk2 (k(Cdk2)): 500 μM ligand, 5 μM thiol, phosphate buffer pH 8; for Rate enhancement, Cdk2 WT: no additional mutations; for Rate constant with Cdk2 WT: Protein: Cdk2, cysteine position WT, in h^-1; for k(Cdk2)/k(Cdk2_mut) rate enhancement: model thiol Cdk2[C177A, F80C, K278C]; for k(Cdk2)/k(GSH) rate enhancement: model thiol glutathione
T3 construct: poly-histidine; made in house; host or cells: E. coli
Summary of the method: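 Thiol 5 μM (Cdk2 or model thiol), degassed phosphate buffer pH 8, TCEP beads 2% v/v. Plates incubated 1 h RT, ex/em 380/470 nm. First-order decay fit → rate constant; ratio Cdk2/model thiol = rate enhancement.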

Cdk2(S181C) (C177A) = biological target: T4, Cdk2(S181C) (C177A) (Homo sapiens, UniProt P24941, C177A/S181C); test: Kinetic thiol consumption assay with Cdk2 mutant S181C; assay type: binding; set-up: key to Rate enhancement, Cdk2 S181C: rate constant with Cdk2 ÷ rate constant with model thiol (fold); settings: additional mutation C177A; for Rate constant with Cdk2 S181C: Protein: Cdk2, cysteine position S181C, in h^-1
T4 construct: poly-histidine; made in house; host or cells: E. coli
Summary of the method: as §1

Cdk2(N272C) (C177A) = biological target: T5, Cdk2(N272C) (C177A) (Homo sapiens, UniProt P24941, C177A/N272C); test: Kinetic thiol consumption assay with Cdk2 mutant N272C; assay type: binding; set-up: key to Rate enhancement, Cdk2 N272: rate constant with Cdk2 ÷ rate constant with model thiol (fold); settings: for Rate enhancement, Cdk2 N272: Cdk2 N272, additional mutation C177A; for Rate constant with Cdk2 N272C: Protein: Cdk2, cysteine position N272C, additional mutation C177A, in h^-1
T5 construct: poly-histidine; made in house; host or cells: E. coli
Summary of the method: as §1

Cdk2(H71C) (C177A) = biological target: T6, Cdk2(H71C) (C177A) (Homo sapiens, UniProt P24941, C177A/H71C); test: Kinetic thiol consumption assay with Cdk2 mutant H71C; assay type: binding; set-up: key to Rate enhancement, Cdk2 H71C: rate constant with Cdk2 ÷ rate constant with model thiol (fold); settings: additional mutation C177A; for Rate constant with Cdk2 H71C: Protein: Cdk2, cysteine position H71C, in h^-1
T6 construct: poly-histidine; made in house; host or cells: E. coli
Summary of the method: as §1

Cdk2[C177A, F80C, K278C] = biological target: T7, Cdk2[C177A, F80C, K278C] (Homo sapiens, UniProt P24941, C177A/F80C/K278C); test: Kinetic thiol consumption assay with mutant Cdk2 as model thiol; assay type: binding; set-up: unit not given here; settings: 500 μM ligand, 5 μM thiol, phosphate buffer pH 8
T7 construct: poly-histidine; made in house; host or cells: E. coli
Summary of the method: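 Model thiol: His-tagged human Cdk2 C177A/F80C/K278C (two engineered surface cysteines), E. coli-expressed, 5 μM in degassed phosphate buffer pH 8 with immobilized TCEP beads (2% v/v). Fluorescence (ex/em 380/470 nm) followed over time at room temperature, normalized to DMSO/thiol control. First-order decay fit gives rate constants.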

[2] = Kinetic thiol consumption assay with model thiol glutathione; assay type: physicochemical; set-up: Rate constant with glutathione (k(GSH)): unit not given here; settings: for Rate constant with glutathione (k(GSH)): 500 μM ligand, 5 μM thiol, phosphate buffer pH 8; for Rate constant with Glutathione: Protein: Glutathione, cysteine position NA, in h-1
Summary of the method: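 Rate constants for acrylamide reaction with 5 μM glutathione come from first-order exponential fits of normalized fluorescence decay (ex 380, em 470 nm). Reactions run in degassed phosphate buffer at pH 8 containing TCEP beads, room temperature.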

Cdk2(R122C) (C177A) = biological target: T8, Cdk2(R122C) (C177A) (Homo sapiens, UniProt P24941, C177A/R122C); test: Kinetic thiol consumption assay with Cdk2 mutant R122C; assay type: binding; set-up: key to Rate enhancement, Cdk2 R122C: rate constant with Cdk2 ÷ rate constant with model thiol (fold); settings: additional mutation C177A; for Rate constant with Cdk2 R122C: Protein: Cdk2, cysteine position R122C, in h-1
T8 construct: poly-histidine; made in house; host or cells: E. coli
Summary of the method: as §1

Cdk2(S276C) (C177A) = biological target: T9, Cdk2(S276C) (C177A) (Homo sapiens, UniProt P24941, C177A/S276C); test: Kinetic thiol consumption assay with Cdk2 mutant S276C; assay type: binding; set-up: key to Rate enhancement, Cdk2 S276C: rate constant with Cdk2 ÷ rate constant with model thiol (fold); settings: additional mutation C177A; for Rate constant with Cdk2 S276C: Protein: Cdk2, cysteine position S276C, in h^-1
T9 construct: poly-histidine; made in house; host or cells: E. coli
Summary of the method: as §1

Rate enhancement, Cdk2 F80C (Cdk2(C177A, F80C))	Rate enhancement, Cdk2 T182C (Cdk2(T182C) (C177A))	Rate constant with Cdk2 T182C (Cdk2(T182C) (C177A))	Rate constant with Cdk2 (k(Cdk2)) [1]	Rate enhancement, Cdk2 WT [1]	Rate constant with Cdk2 WT [1]	k(Cdk2)/k(Cdk2_mut) rate enhancement [1]	k(Cdk2)/k(GSH) rate enhancement [1]	Rate enhancement, Cdk2 S181C (Cdk2(S181C) (C177A))	Rate constant with Cdk2 S181C (Cdk2(S181C) (C177A))	Rate enhancement, Cdk2 N272 (Cdk2(N272C) (C177A))	Rate constant with Cdk2 N272C (Cdk2(N272C) (C177A))	Rate enhancement, Cdk2 H71C (Cdk2(H71C) (C177A))	Rate constant with Cdk2[C177A, F80C, K278C] (k(Cdk2_mut)) (Cdk2[C177A, F80C, K278C])	Rate enhancement, Cdk2 R122C (Cdk2(R122C) (C177A))	Rate constant with Cdk2 R122C (Cdk2(R122C) (C177A))	Rate enhancement, Cdk2 S276C (Cdk2(S276C) (C177A))	Rate constant with Cdk2 S276C (Cdk2(S276C) (C177A))	SMILES	Rate constant with glutathione (k(GSH)) [2]	Rate constant with Glutathione [2]	further results
11.9	9.969	0.1279	0.03272	2.55	0.03272	0.2745	2.536	1.116	0.01432	0.3525	0.004522	0.809	0.1192	0.6834	0.008768	2.167	0.0278	C=CC(=O)Nc1cccc(C(=O)c2ccccc2)c1 [CA-218]	0.0129	0.01283	Rate constant with Cdk2 F80C (Cdk2(C177A, F80C)): 0.1527; Rate constant with Cdk2 H71C (Cdk2(H71C) (C177A)): 0.01038
0.3899	2.502	0.01499	0.00219	0.3657	0.002191	1.879	0.7753	0.9743	0.005838	0.7423	0.004448	0	0.00117	0.4317	0.002587	0.1643	0.0009842	C=CC(=O)NCC1CCCN1S(=O)(=O)c1ccc(C(=O)O)cc1 (stereo not shown) [BN122]	0.00283	0.005992	Rate constant with Cdk2 F80C (Cdk2(C177A, F80C)): 0.002336
0	0.9139	0.00998	0.00098	0.08945	0.0009768	0.3446	0.1583	0.1531	0.001672	0.157	0.001714	0	0.00284	0.05484	0.0005988	0.5044	0.005508	C=CC(=O)NCCc1c(-c2ccccn2)[nH]c2ccccc12 [EL-1083]	0.00618	0.01092	–
1.811	3.848	0.06469	0.00872	0.5186	0.008718	1.989	0.8701	0.4258	0.007158	0.06817	0.001146	0.8209	0.00438	0.2694	0.004528	1.079	0.01813	C=CC(=O)N1CCCC2(CCCc3ccccc32)C1 (stereo not shown) [CA-084]	0.01002	0.01681	Rate constant with Cdk2 F80C (Cdk2(C177A, F80C)): 0.03044; Rate constant with Cdk2 H71C (Cdk2(H71C) (C177A)): 0.0138
0	0.2621	0.0006241	0.0007	0.4066	0.0009681	0.6937	0.2881	1.073	0.002556	4.591	0.01093	0.4859	0.00101	0.4288	0.001021	0.6972	0.00166	C=CC(=O)NC1C2CC3CC(C2)CC1C3 (stereo not shown) [CA-055]	0.00243	0.002381	Rate constant with Cdk2 H71C (Cdk2(H71C) (C177A)): 0.001157
1.482	1.059	0.004582	0.00267	0.6163	0.002666	0.0662	0.614	0.4697	0.002032	1.248	0.005397	1.023	0.04027	0.4198	0.001816	0.9498	0.004109	C=CC(=O)Nc1ccc2c(c1)OC1(CCCC1)O2 [CA-054]	0.00434	0.004326	Rate constant with Cdk2 F80C (Cdk2(C177A, F80C)): 0.006411; Rate constant with Cdk2 H71C (Cdk2(H71C) (C177A)): 0.004426
2.336	3.479	0.005204	0.00089	0.9753	0.001459	0.2541	0.5565	0.8476	0.001268	1.553	0.002323	0.7553	0.0035	0	–	0	–	C=CC(=O)NCc1ccc(-c2csnn2)cc1 [BN-66]	0.0016	0.001496	Rate constant with Cdk2 F80C (Cdk2(C177A, F80C)): 0.003494; Rate constant with Cdk2 H71C (Cdk2(H71C) (C177A)): 0.00113
